In patent US11634701B2, “Metabolic pathways with increased carbon yield” (TOTAL RAFFINAGE CHIMIE, priority 2018, dated 2023) one finds Km and Ki data, which are given here for nine compounds.

Where two headings read alike, the source gives them in different places.

The subject of assay [1] is C. acetobutylicum Fba (fructose-1,6-bisphosphate aldolase). Conditions: measured experimentally or estimated from literature, cited from earlier work.
Assay [2] concerns C. acetobutylicum Tpi (triose phosphate isomerase). Conditions: measured experimentally or estimated from literature, cited from earlier work.
In assay [3] the test system is C. acetobutylicum Tkt′ (transketolase, second reaction). Conditions: measured experimentally or estimated from literature, cited from earlier work.
Assay [4] deals with C. acetobutylicum Tal (transaldolase). Conditions: measured experimentally or estimated from literature, cited from earlier work.
Assay [5] concerns C. acetobutylicum Fbp (fructose-1,6-biphosphatase). The experiment in a line: Kinetic parameters of C. acetobutylicum NOG enzymes (Fbp). The format is biochemical. Conditions: measured experimentally or estimated from literature. As to the method:
(§1) The kinetic parameters of C. acetobutylicum enzymes involved in the NOG pathway were measured experimentally or estimated from literature (Table 1) and compiled in a COPASI toolbox for kinetic simulations.

Assay [6] has as its system C. acetobutylicum Fba (fructose-1,6-bisphosphate aldolase). Description: Kinetic parameters of C. acetobutylicum NOG enzymes (Fba). Conditions: measured experimentally or estimated from literature; read-out: Kms. Format: biochemical. As to the method: as §1
The subject of assay [7] is C. acetobutylicum Tkt (transketolase). Conditions: measured experimentally or estimated from literature, cited from earlier work.
The test system of assay [8] is C. acetobutylicum Rpi (ribose-5-phosphate isomerase). Conditions: measured experimentally or estimated from literature, cited from earlier work.
Assay [9] concerns C. acetobutylicum Rpe (ribulose-3-phosphate epimerase). Conditions: measured experimentally or estimated from literature, cited from earlier work.
For assay [10], the target named is T1, C. acetobutylicum Xpk (xylulose-5-phosphate phosphoketolase) (Clostridium acetobutylicum, UniProt Q97JE3).
T1 sequence (Q97JE3 1-796): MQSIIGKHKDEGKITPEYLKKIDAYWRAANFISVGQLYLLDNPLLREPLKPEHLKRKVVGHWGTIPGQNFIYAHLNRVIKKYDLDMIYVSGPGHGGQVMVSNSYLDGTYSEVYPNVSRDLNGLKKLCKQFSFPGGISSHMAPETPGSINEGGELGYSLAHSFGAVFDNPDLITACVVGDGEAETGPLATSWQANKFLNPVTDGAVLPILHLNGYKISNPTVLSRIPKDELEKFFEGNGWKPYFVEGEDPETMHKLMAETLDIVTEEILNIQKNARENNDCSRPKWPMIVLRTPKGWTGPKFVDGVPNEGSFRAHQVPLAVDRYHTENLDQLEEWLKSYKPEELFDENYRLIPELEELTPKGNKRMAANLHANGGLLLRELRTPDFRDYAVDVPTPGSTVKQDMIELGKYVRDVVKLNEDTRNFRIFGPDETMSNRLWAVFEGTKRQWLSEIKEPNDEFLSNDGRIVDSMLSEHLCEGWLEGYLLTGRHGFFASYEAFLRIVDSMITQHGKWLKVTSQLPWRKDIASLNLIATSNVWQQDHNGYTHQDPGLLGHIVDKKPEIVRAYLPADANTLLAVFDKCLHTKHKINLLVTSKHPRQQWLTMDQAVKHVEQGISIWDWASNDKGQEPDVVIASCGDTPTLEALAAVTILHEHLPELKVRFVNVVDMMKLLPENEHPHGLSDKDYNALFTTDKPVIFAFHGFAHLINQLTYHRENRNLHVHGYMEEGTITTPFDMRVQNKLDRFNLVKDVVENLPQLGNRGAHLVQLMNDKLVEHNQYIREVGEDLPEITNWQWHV
The experiment in a line: Kinetic parameters of C. acetobutylicum NOG enzymes (Xpk). Format: biochemical. Conditions: measured experimentally or estimated from literature. The protocol: as §1

With `O=C(CO)COP(=O)(O)O` [dihydroxyacetone phosphate], the values for the Km in [1] (read-out: Kmp) and in assay [2] (read-out: Kms) were 2000 µM and 6450 µM, respectively.

Regarding `O=C[C@H](O)[C@H](O)COP(=O)(O)O` [erythrose-4-phosphate], the Km in [3] (read-out: Kma) is 946 µM; in assay [4] (read-out: Kmq), 362 µM.

`O=P(O)(O)OC[C@H]1OC(O)(COP(=O)(O)O)[C@@H](O)[C@@H]1O` (stereo partly shown) [fructose-1,6-bisphosphate]: the Km in [5] was 63 µM; in [6] it was 1140 µM.

Turning to `O=P(O)(O)OC[C@H]1OC(O)(CO)[C@@H](O)[C@@H]1O` (stereo partly shown) [fructose-6-phosphate], the Km was 1100 µM in [3] (read-out: Kmp) and 1440 µM in [4] (read-out: Kmp).

For the compound `O=C[C@H](O)COP(=O)(O)O` [glyceraldehyde-3-phosphate], the Ki in assay [1] (read-out: Kip) was 10 mM. Further, the Km in assay [1] (read-out: Kmq) is 2400 µM; in [3] (read-out: Kmq), 100 µM; in assay [4] (read-out: Kma), 272 µM; in assay [2] (read-out: Kmp) it was 5250 µM.

With `O=P(O)(O)OC[C@H]1OC(O)[C@H](O)[C@@H]1O` (stereo partly shown) [ribose-5-phosphate], the Km in assay [7] (read-out: Kmb) was 235 µM; in [8] (read-out: Kmp), 5700 µM.

Take `O=C(CO)[C@H](O)[C@H](O)COP(=O)(O)O` [ribulose-5-phosphate]: the Km was 5970 µM in [9] (read-out: Kms) and 2470 µM in assay [8] (read-out: Kms).

For `O=C(CO)[C@@H](O)[C@H](O)[C@H](O)[C@H](O)COP(=O)(O)O` [sedoheptulose-7-phosphate], the results for the Km in assay [7] (read-out: Kmq) and in assay [4] (read-out: Kmb) were 150 µM and 786 µM, respectively.

For `O=C(CO)[C@@H](O)[C@H](O)COP(=O)(O)O` [xylulose-5-phosphate], the Km was 670 µM in assay [3] (read-out: Kmb), 6400 µM in [10] and 7700 µM in [9] (read-out: Kmp).
